Data published in patent US20210308173A1, “PHARMACEUTICAL COMPOSITION COMPRISING CYCLODEXTRIN COMPLEXES OF ANETHOLE TRITHIONE OR DERIVATIVES THEREOF” (priority 2018, published 2021).
Values after ≈ are worked out from the molar mass of the structure shown. Where two headings read alike, the source gives them in different places.

Key:
Format in all cases: physicochemical
[1] = Cyclodextrin solubilization screening of AOL; details: for CD/AOL molar ratio RM / CD/AOL weight ratio Rm: 25° C.; for solubility at 3 h / solubility at 20 h: 25 °C, thermodynamic from solid
Procedure: This assay evaluated the potential of different cyclodextrins to solubilize AOL. A solubilization screening is carried out with the four cyclodextrins (CD) selected from α-CD, γ-CD, HP-β-CD and SBE-β-CD.
Aqueous solutions containing 100 mM of cyclodextrin are prepared in pure water. An excess of AOL (approximately 5 mg/mL) is suspended in 2 mL of each of these cyclodextrin solutions. Each duplicate sample is shaken at 25° C. for 3 hours and 20 hours (vortex to 1400 rpm). Each sample is centrifuged (12,500 g) then filtered through a 0.45 μm membrane. The solubility of the AOL is quantified by HPLC as previously described (Example 2).

[2] = Solubility testing in buffer containing media
Procedure: The solubility of AOL was tested in aqueous HP-β-CD and SBE-β-CD media at various concentrations and pH levels at room temperature. Some initial tests, where the pH of the formulations was adjusted only by addition of HCl or NaOH solutions, did evidence high variation in pH and difficulties to reach the target pH. Therefore, it was decided to prepare samples containing a buffering agent to get a stable pH and to facilitate the preparation of the formulations.
A citrate buffer was used at pH 5.5 and phosphate buffer were used at pH 6.5 and 7.5. The solubility (mg/mL) is the mean of 2 independent replicates.

[3] = Chemical stability of AOL in cyclodextrin solutions by HPLC; details: associated with HP-β-CD, conditions of Example 4

**Q.** With `COc1ccc(-c2cc(=S)ss2)cc1` [AOL, 5-(4-methoxyphenyl)-3H-1,2-dithiole-3-thione] as the compound, how does the “CD/AOL molar ratio RM” value ([1]; HP-β-CD 100 mM, stirring 3 h) read?
**A.** 218

**Q.** What about the “CD/AOL weight ratio Rm” value ([1]; HP-β-CD 100 mM, stirring 3 h) of the same compound?
**A.** 1270

**Q.** What about the “CD/AOL molar ratio RM” value ([1]; HP-β-CD 100 mM, stirring 20 h) of the same compound?
**A.** 252

**Q.** What about the “CD/AOL weight ratio Rm” value ([1]; HP-β-CD 100 mM, stirring 20 h) of the same compound?
**A.** 1465

**Q.** What about the “CD/AOL molar ratio RM” value ([1]; SBE-β-CD 100 mM, stirring 3 h) of the same compound?
**A.** 169

**Q.** And the “CD/AOL weight ratio Rm” value ([1]; SBE-β-CD 100 mM, stirring 3 h)?
**A.** 1575

**Q.** What about the “CD/AOL molar ratio RM” value ([1]; SBE-β-CD 100 mM, stirring 20 h) of the same compound?
**A.** 150

**Q.** And the “CD/AOL weight ratio Rm” value ([1]; SBE-β-CD 100 mM, stirring 20 h)?
**A.** 1395

**Q.** What about the solubility at 3 h ([1]; aqueous cyclodextrin solution, aqueous with cosolvent or surfactant or cyclodextrin, HP-β-CD 100 mM, stirring 3 h) of the same compound?
**A.** 110 µg/mL (≈ 458 µM)

**Q.** What about the solubility at 20 h ([1]; aqueous cyclodextrin solution, aqueous with cosolvent or surfactant or cyclodextrin, HP-β-CD 100 mM, stirring 20 h) of the same compound?
**A.** 95.5 µg/mL (≈ 397 µM)

**Q.** And the solubility at 3 h ([1]; aqueous cyclodextrin solution, aqueous with cosolvent or surfactant or cyclodextrin, SBE-β-CD 100 mM, stirring 3 h)?
**A.** 142 µg/mL (≈ 592 µM)

**Q.** And the solubility at 20 h ([1]; aqueous cyclodextrin solution, aqueous with cosolvent or surfactant or cyclodextrin, SBE-β-CD 100 mM, stirring 20 h)?
**A.** 161 µg/mL (≈ 669 µM)

**Q.** And the solubility at 3 h ([1]; aqueous cyclodextrin solution, aqueous with cosolvent or surfactant or cyclodextrin, α-CD 100 mM, stirring 3 h)?
**A.** 8.83 µg/mL (≈ 36.7 µM)

**Q.** What about the solubility at 20 h ([1]; aqueous cyclodextrin solution, aqueous with cosolvent or surfactant or cyclodextrin, α-CD 100 mM, stirring 20 h) of the same compound?
**A.** 13.5 µg/mL (≈ 56.2 µM)

**Q.** What about the solubility at 3 h ([1]; aqueous cyclodextrin solution, aqueous with cosolvent or surfactant or cyclodextrin, γ-CD 100 mM, stirring 3 h) of the same compound?
**A.** 2.86 µg/mL (≈ 11.9 µM)

**Q.** What about the solubility at 20 h ([1]; aqueous cyclodextrin solution, aqueous with cosolvent or surfactant or cyclodextrin, γ-CD 100 mM, stirring 20 h) of the same compound?
**A.** 1.67 µg/mL (≈ 6.95 µM)

**Q.** What about the solubility at 3 h ([1]; water, None-H2O, stirring 3 h) of the same compound?
**A.** 0.22 µg/mL (≈ 0.915 µM)

**Q.** What about the solubility at 20 h ([1]; water, None-H2O, stirring 20 h) of the same compound?
**A.** 0.16 µg/mL (≈ 0.666 µM)

**Q.** What about the “CD/AOL molar ratio RM” value ([1]; α-CD 100 mM, stirring 3 h) of the same compound?
**A.** 2721

**Q.** And the “CD/AOL weight ratio Rm” value ([1]; α-CD 100 mM, stirring 3 h)?
**A.** 11010

**Q.** What about the “CD/AOL molar ratio RM” value ([1]; α-CD 100 mM, stirring 20 h) of the same compound?
**A.** 1779

**Q.** What about the “CD/AOL weight ratio Rm” value ([1]; α-CD 100 mM, stirring 20 h) of the same compound?
**A.** 7198

**Q.** What about the “CD/AOL molar ratio RM” value ([1]; γ-CD 100 mM, stirring 3 h) of the same compound?
**A.** 8399

**Q.** What about the “CD/AOL weight ratio Rm” value ([1]; γ-CD 100 mM, stirring 3 h) of the same compound?
**A.** 45316

**Q.** And the “CD/AOL molar ratio RM” value ([1]; γ-CD 100 mM, stirring 20 h)?
**A.** 14405

**Q.** And the “CD/AOL weight ratio Rm” value ([1]; γ-CD 100 mM, stirring 20 h)?
**A.** 77723

**Q.** What about the solubility ([2]; aqueous SBE-β-CD medium with buffer, pH 5.5, aqueous with cosolvent or surfactant or cyclodextrin, SBE-β-CD 10.0% (w/w), Citrate (100 μM), room temperature, read-out: AOL solubility) of the same compound?
**A.** 165 µg/mL (≈ 686 µM)

**Q.** And the solubility ([2]; aqueous SBE-β-CD medium with buffer, pH 5.5, aqueous with cosolvent or surfactant or cyclodextrin, SBE-β-CD 40.0% (w/w), Citrate (100 μM), room temperature, read-out: AOL solubility)?
**A.** 1140 µg/mL (≈ 4730 µM)

**Q.** And the solubility ([2]; aqueous SBE-β-CD medium with buffer, pH 6.5, aqueous with cosolvent or surfactant or cyclodextrin, SBE-β-CD 10.0% (w/w), Phosphate 6.5 (100 μM), room temperature, read-out: AOL solubility)?
**A.** 168 µg/mL (≈ 699 µM)

**Q.** What about the solubility ([2]; aqueous SBE-β-CD medium with buffer, pH 6.5, aqueous with cosolvent or surfactant or cyclodextrin, SBE-β-CD 40.0% (w/w), Phosphate 6.5 (100 μM), room temperature, read-out: AOL solubility) of the same compound?
**A.** 1210 µg/mL (≈ 5020 µM)

**Q.** And the solubility ([2]; aqueous SBE-β-CD medium with buffer, pH 7.5, aqueous with cosolvent or surfactant or cyclodextrin, SBE-β-CD 40.0% (w/w), Phosphate 7.5 (100 μM), room temperature, read-out: AOL solubility)?
**A.** 1180 µg/mL (≈ 4920 µM)

**Q.** And the solubility ([2]; buffered aqueous HP-β-CD medium, pH 5.5, aqueous with cosolvent or surfactant or cyclodextrin, HP-β-CD 10.0% (w/w), Citrate (100 μM), room temperature, read-out: AOL solubility)?
**A.** 79 µg/mL (≈ 329 µM)

**Q.** What about the solubility ([2]; buffered aqueous HP-β-CD medium, pH 5.5, aqueous with cosolvent or surfactant or cyclodextrin, HP-β-CD 20.0% (w/w), Citrate (100 μM), room temperature, read-out: AOL solubility) of the same compound?
**A.** 212 µg/mL (≈ 882 µM)

**Q.** And the solubility ([2]; buffered aqueous HP-β-CD medium, pH 5.5, aqueous with cosolvent or surfactant or cyclodextrin, HP-β-CD 30.0% (w/w), Citrate (100 μM), room temperature, read-out: AOL solubility)?
**A.** 505 µg/mL (≈ 2100 µM)

**Q.** And the solubility ([2]; buffered aqueous HP-β-CD medium, pH 5.5, aqueous with cosolvent or surfactant or cyclodextrin, HP-β-CD 40.0% (w/w), Citrate (100 μM), room temperature, read-out: AOL solubility)?
**A.** 721 µg/mL (≈ 3000 µM)

**Q.** And the solubility ([2]; buffered aqueous HP-β-CD medium, pH 6.5, aqueous with cosolvent or surfactant or cyclodextrin, HP-β-CD 10.0% (w/w), Phosphate 6.5 (100 μM), room temperature, read-out: AOL solubility)?
**A.** 111 µg/mL (≈ 462 µM)

**Q.** What about the solubility ([2]; buffered aqueous HP-β-CD medium, pH 6.5, aqueous with cosolvent or surfactant or cyclodextrin, HP-β-CD 20.0% (w/w), Phosphate 6.5 (100 μM), room temperature, read-out: AOL solubility) of the same compound?
**A.** 274 µg/mL (≈ 1140 µM)

**Q.** What about the solubility ([2]; buffered aqueous HP-β-CD medium, pH 6.5, aqueous with cosolvent or surfactant or cyclodextrin, HP-β-CD 30.0% (w/w), Phosphate 6.5 (100 μM), room temperature, read-out: AOL solubility) of the same compound?
**A.** 480 µg/mL (≈ 2000 µM)

**Q.** And the solubility ([2]; buffered aqueous HP-β-CD medium, pH 6.5, aqueous with cosolvent or surfactant or cyclodextrin, HP-β-CD 40.0% (w/w), Phosphate 6.5 (100 μM), room temperature, read-out: AOL solubility)?
**A.** 676 µg/mL (≈ 2810 µM)

**Q.** And the solubility ([2]; buffered aqueous HP-β-CD medium, pH 7.5, aqueous with cosolvent or surfactant or cyclodextrin, HP-β-CD 10.0% (w/w), Phosphate 7.5 (100 μM), room temperature, read-out: AOL solubility)?
**A.** 112 µg/mL (≈ 466 µM)

**Q.** What about the solubility ([2]; buffered aqueous HP-β-CD medium, pH 7.5, aqueous with cosolvent or surfactant or cyclodextrin, HP-β-CD 20.0% (w/w), Phosphate 7.5 (100 μM), room temperature, read-out: AOL solubility) of the same compound?
**A.** 283 µg/mL (≈ 1180 µM)

**Q.** What about the solubility ([2]; buffered aqueous HP-β-CD medium, pH 7.5, aqueous with cosolvent or surfactant or cyclodextrin, HP-β-CD 30.0% (w/w), Phosphate 7.5 (100 μM), room temperature, read-out: AOL solubility) of the same compound?
**A.** 540 µg/mL (≈ 2250 µM)

**Q.** And the solubility ([2]; buffered aqueous HP-β-CD medium, pH 7.5, aqueous with cosolvent or surfactant or cyclodextrin, HP-β-CD 40.0% (w/w), Phosphate 7.5 (100 μM), room temperature, read-out: AOL solubility)?
**A.** 723 µg/mL (≈ 3010 µM)

**Q.** And the solubility ([2]; buffered aqueous SBE-β-CD medium, pH 5.5, aqueous with cosolvent or surfactant or cyclodextrin, SBE-β-CD 20.0% (w/w), Citrate (100 μM), room temperature, read-out: AOL solubility)?
**A.** 369 µg/mL (≈ 1540 µM)

**Q.** What about the solubility ([2]; buffered aqueous SBE-β-CD medium, pH 5.5, aqueous with cosolvent or surfactant or cyclodextrin, SBE-β-CD 30.0% (w/w), Citrate (100 μM), room temperature, read-out: AOL solubility) of the same compound?
**A.** 675 µg/mL (≈ 2810 µM)

**Q.** What about the solubility ([2]; buffered aqueous SBE-β-CD medium, pH 6.5, aqueous with cosolvent or surfactant or cyclodextrin, SBE-β-CD 20.0% (w/w), Phosphate 6.5 (100 μM), room temperature, read-out: AOL solubility) of the same compound?
**A.** 382 µg/mL (≈ 1590 µM)

**Q.** And the solubility ([2]; buffered aqueous SBE-β-CD medium, pH 6.5, aqueous with cosolvent or surfactant or cyclodextrin, SBE-β-CD 30.0% (w/w), Phosphate 6.5 (100 μM), room temperature, read-out: AOL solubility)?
**A.** 676 µg/mL (≈ 2810 µM)

**Q.** What about the solubility ([2]; buffered aqueous SBE-β-CD medium, pH 7.5, aqueous with cosolvent or surfactant or cyclodextrin, SBE-β-CD 10.0% (w/w), Phosphate 7.5 (100 μM), room temperature, read-out: AOL solubility) of the same compound?
**A.** 170 µg/mL (≈ 707 µM)

**Q.** What about the solubility ([2]; buffered aqueous SBE-β-CD medium, pH 7.5, aqueous with cosolvent or surfactant or cyclodextrin, SBE-β-CD 20.0% (w/w), Phosphate 7.5 (100 μM), room temperature, read-out: AOL solubility) of the same compound?
**A.** 375 µg/mL (≈ 1560 µM)

**Q.** What about the solubility ([2]; buffered aqueous SBE-β-CD medium, pH 7.5, aqueous with cosolvent or surfactant or cyclodextrin, SBE-β-CD 30.0% (w/w), Phosphate 7.5 (100 μM), room temperature, read-out: AOL solubility) of the same compound?
**A.** 685 µg/mL (≈ 2850 µM)

**Q.** What about the solubility ([2]; buffered aqueous cyclodextrin solution, pH 6.5, aqueous with cosolvent or surfactant or cyclodextrin, 40% SBE-β-cyclodextrin, pH 6.5 phosphate buffer, read-out: highest solubility value) of the same compound?
**A.** 1210 µg/mL (≈ 5020 µM)

**Q.** And the solubility ([2]; buffered aqueous cyclodextrin solution, pH 7.5, aqueous with cosolvent or surfactant or cyclodextrin, 40% HP-β-cyclodextrin, pH 7.5 phosphate buffer, read-out: highest solubility value)?
**A.** 723 µg/mL (≈ 3010 µM)

**Q.** And the “chemical stability (HPLC impurities)” value [3]?
**A.** chemical instability
